Measured values taken from patent US20210220331A1, “INHIBITORS OF IRES-MEDIATED PROTEIN SYNTHESIS” (The Regents of the University of California, priority 2016, published 2021).

How the values were obtained:
human cyclin D1 IRES [1] = test: Dicistronic IRES mRNA reporter assay (firefly luciferase), cyclin D1 IRES; assay type: cell-based; details: for Cyclin D1 (decrease): fold decrease in PP242-induced cyclin D1 IRES activity: LN229, relative to values obtained with parent compound C11
Description: (§1) Western blot and quantitative RT-PCR analyses were performed as previously described (19). For Western blotting, cells or tissues were lysed in RIPA (lysis) buffer containing protease inhibitor cocktail and phosSTOP phosphatase inhibitor cocktail (Roche) and extracts resolved by SDSPAGE. Proteins were transferred to PVDF membranes and incubated with the indicated antibodies. For IRES reporter assays, the indicated mRNA reporters were cotransfected into cells with pSVβ-galactosidase to normalize for transfection efficiency as described previously (16). Cells were harvested 18 h following transfection and Renilla, firefly and β-galactosidase activities determined using the Dual-Glo Luciferase and β-galactosidase assay systems (Promega).
(B) Schematic diagrams of the dicistronic constructs used in this study. Constructs used are pRF, pRCD1F, which contains the human cyclin D1 IRES, pRmycF, containing the human c-myc IRES, pRp27F, containing the human p27Kip1 IRES and pRECMVF, containing the IRES from encephalomyocarditis virus. (C) Relative Renilla and firefly luciferase activities obtained from LN229 GBM cells transfected with the indicated constructs in the absence or presence of the inhibitor C11. The mean and +SD are shown for three independent experiments. […] (D) RNA-pull down assays utilizing biotinylated cyclin D1 or c-MYC IRES RNAs. Cytoplasmic extracts of LN229 cells treated with C11 (50 nM) as indicated were incubated with biotinylated cyclin D1 or c-MYC IRES RNAs and precipitated with streptavidin-Sepharose beads. Input and bound fractions were analyzed by immunoblotting using hnRNP A1 antibodies. […] RT-PCR measurements were performed in quadruplicate and the mean and +S.D. are shown. […] (F) Top panel, LN229 cells were treated with C11 as indicated and RT-PCR splicing analysis for Max exon 5 performed as described in the Experimental Methods section. Middle panel, LN229 cells treated with C11 (50 nM) as indicated, were lysed and immunoprecipitated using either eIF-4E or control IgG antibodies. Bound CCND1 or c-MYC RNAs were detected via RT-PCR. The mean and +S.D. are shown for three independent experiments. Bottom panel, cyclin D1 and c-MYC protein levels from the indicated GBM cell lines in the absence or presence of C11 at 24 h following treatment. C11 specifically blocks c-Myc IRES-mediated translation initiation by disrupting the ITAF hnRNP A1-IRES interaction.
Several dicistronic IRES mRNA reporter constructs were utilized, shown in FIG. 1B, in which the indicated IRES sequences were inserted within the intercistronic region. LN229 cells transiently transfected with these constructs were assayed for Renilla and firefly luciferase activities, which are readouts of cap-dependent and IRES-mediated translation initiation, respectively (16). […]

LN229 cells = test: Apoptosis via Annexin V staining in LN229; assay type: cell-based; details: LN229 cotreated with PP242 (50 nM) and analog (100 nM), 24 h
[2] = biological target: T1, UP1 fragment of hnRNP A1 / cyclin D1 or c-MYC IRES RNAs (Homo sapiens, UniProt P09651); test: Filter binding assay of GST-tagged hnRNP A1 mutants with IRES RNAs; details: for association of UP1 fragment (a.a. 1-196) with cyclin D1 or c-MYC IRESs: GST-tagged protein
T1 construct: The UP1 fragment (a.a. 1-196) containing RRM1 and RRM2; made in house; host or cells: HEK293 cells
Description: Filter binding assays were performed as previously described (18,23). GSTtagged hnRNP A1 or hnRNP A1 deletion mutants were added to in vitro transcribed 32Plabeled RNAs corresponding to either the cyclin D1 or c-MYC IRESs in separate reactions in a volume of 10 μl in buffer containing 5 mM HEPES (pH 7.6), 30 mM KCl, 2 mM MgCl2, 200 mM DTT, 4% glycerol and 10 ng yeast tRNA for 10 min at room temperature. 8 μl of each binding reaction was applied to nitrocellulose membranes on a slot blot apparatus (Minifold II, Schleicher & Schuell). Membranes were washed and dried, and signals quantified using a phosphorimager.
To begin to investigate the mechanism of action of C11 and IRES-J007, it was initially determined whether the UP1 fragment of hnRNP A1 was sufficient to recapitulate C11 or IRESJ007-mediated inhibition of IRES binding to this ITAF. The relative association between the mutant proteins and either the cyclin D1 or c-MYC IRESs was determined by filter binding assays in the absence or presence of the inhibitors (FIG. 4B). […] Additionally, a mutant encompassing residues 103-372, containing RRM2 bound both IRES sequences and binding was reduced in the presence of either of the inhibitors. […] The presence of RRM2 is necessary and appears to cooperate with RRM1 to mediate IRES binding that is sensitive to C11 or IRES-J007. Finally, UP1 is capable of IRES binding that is blocked by either C11 or the analog IRES-J007.
Mutant 1-196 constitutes the Up1 fragment of full-length human hnRNP A1. In the Δ130-158 mutant, the sequences encompassing RRM2 have been removed. (B) Binding of either cyclin D1 (top panel) or c-MYC (bottom panel) IRES RNAs to GST-tagged hnRNP A1 mutants in the absence or presence of C11 or IRES-J007 as assayed by filter binding. The mean and +SD are shown for three independent experiments.

human cyclin D1 IRES [3] = test: Dicistronic IRES mRNA reporter assay (firefly luciferase), cyclin D1 IRES; assay type: cell-based; details: 293T cells, 50 nM, 24 h
human c-myc IRES = test: Dicistronic IRES mRNA reporter assay (firefly luciferase), c-myc IRES; assay type: cell-based; details: 293T cells, 50 nM, 24 h
[4] = test system: LN229, LN18, LN428 and SF763 GBM lines; test: Growth inhibition of GBM cell lines (XTT); assay type: cell-based
Description: (§2) Results are expressed as relative fold change in firefly (FF) luciferase activity and the mean and +S.D. are shown for three independent experiments. (B) Growth inhibition of GBM cell lines following 48 h culture in C11. Data represent mean±S.D. of three independent experiments. […] Control cell were treated with DMSO vehicle. Data are means±S.D., n=3. […] Percent apoptotic cells as determined via Annexin V staining are also shown below each graph. One of three experiments with similar results is shown.

[5] = test system: LN229, LN18, LN428 and SF763 GBM lines; test: Cell-cycle phase distribution and Annexin V apoptosis in four GBM lines; assay type: cell-based
Description: as §2, with “(B) Growth inhibition of GBM cell lines following 48 h culture in C11.” left out, “graph.” for “graph. One of three experiments with similar results is shown.”

[6] = test system: cyclin D1 and c-MYC protein; test: Western blot of cyclin D1 and c-MYC protein levels in GBM cell lines; assay type: cell-based; details: LN229 and SF763 cells, 24 h
Description: as §1
(B) Schematic diagrams of the dicistronic constructs used in this study. Constructs used are pRF, pRCD1F, which contains the human cyclin D1 IRES, pRmycF, containing the human c-myc IRES, pRp27F, containing the human p27Kip1 IRES and pRECMVF, containing the IRES from encephalomyocarditis virus. (C) Relative Renilla and firefly luciferase activities obtained from LN229 GBM cells transfected with the indicated constructs in the absence or presence of the inhibitor C11. […] Input and bound fractions were analyzed by immunoblotting using hnRNP A1 antibodies. […] Bound CCND1 or c-MYC RNAs were detected via RT-PCR. […]

T1 sequence (P09651 1-196): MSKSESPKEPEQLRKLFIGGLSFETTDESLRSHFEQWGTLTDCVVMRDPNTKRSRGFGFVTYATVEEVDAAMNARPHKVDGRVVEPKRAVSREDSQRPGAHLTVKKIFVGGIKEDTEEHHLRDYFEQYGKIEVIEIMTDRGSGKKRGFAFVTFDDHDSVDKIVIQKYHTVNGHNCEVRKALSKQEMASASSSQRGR

Row | Compound | Cyclin D1 (decrease): fold decrease in PP242-induced cyclin D1 IRES activity (human cyclin D1 IRES [1]) [fold] | % Apoptosis (100 nM) (LN229 cells) [%] | ability to block UP1/IRES RNA interactions compared to C11 [2] | association of UP1 fragment (a.a. 1-196) with cyclin D1 or c-MYC IRESs [2] | basal cyclin D1 IRES activity (human cyclin D1 IRES [3]) | basal c-MYC IRES activity (human c-myc IRES) | mTOR inhibitor-induced cyclin D1 IRES activity (human cyclin D1 IRES [1]; LN229 cells, cotreatment with rapamycin or PP242) | cyclin D1 IRES activity (human cyclin D1 IRES [1]; LN229 cells, inhibitor alone) | CI (combination index) at ED50 ratio of 1:100 ([4]; C11 at 10 and 100 nM with PP242, 48 h, LN229, LN18, LN428 and SF763) | inhibition of cell growth ([4]; inhibitor alone, concentrations up to 10 μM, 48 h, several GBM lines) | percentage of cells undergoing apoptosis ([5]; combined with PP242, four GBM lines) | G1 arrest ([5]; cotreatment with PP242, four GBM lines) | cyclin D1 and c-MYC protein levels [6]
1 | COc1ccc(CN2C(=O)c3ccccc3C2=O)c(OC)c1 [IRES-J007, 2-((2,4-Dimethoxyphenyl)methyl)isoindoline-1,3-dione] | 4.97 ± 0.13 | 62.4 | modest, yet significant increase | blocked association | reduced IRES activity | reduced IRES activity |  |  |  |  |  |  | 
2 | COc1ccc(CN2C(=O)C(Cl)=C(Cl)C2=O)c(OC)c1 [Compound C11, reference compound] | 1.0 | 25.9 |  | blocked association | reduced IRES activity | reduced IRES activity | significantly inhibited | significantly inhibited | 0.5 | No significant inhibition of cell growth | further potentiated the percentage of cells undergoing apoptosis | markedly stimulated G1 arrest | markedly reduced
